ChEMBL document CHEMBL1909046, “DrugMatrix in vitro pharmacology data”

Tests used:
Melanocortin receptor 5 = Melanocortin receptor 5 (Homo sapiens, UniProt P33032); format: cell membranes, HEK293, Membrane; conditions: hek293; also: in other assays of this panel Not Active means under 50% inhibition at 10 µM
[1] = target: Mitogen-activated protein kinase 3 (Homo sapiens, UniProt P27361); test: DRUGMATRIX: Protein Serine/Threonine Kinase, ERK1 enzyme inhibition (substrate: Myelin Basic Protein); parameters: species or system Escherichia coli; conditions: Not Active = under 50% inhibition at 10 µM
Substance-P receptor = Substance-P receptor (Homo sapiens, UniProt P25103); format: cell membranes, Membrane; conditions: cho; also: in other assays of this panel Not Active means under 50% inhibition at 10 µM
Glucocorticoid receptor = target: T1, Glucocorticoid receptor (Homo sapiens, UniProt P04150); conditions: hela s3; also: in other assays of this panel Not Active means under 50% inhibition at 10 µM
T1 sequence (P04150 whole entry): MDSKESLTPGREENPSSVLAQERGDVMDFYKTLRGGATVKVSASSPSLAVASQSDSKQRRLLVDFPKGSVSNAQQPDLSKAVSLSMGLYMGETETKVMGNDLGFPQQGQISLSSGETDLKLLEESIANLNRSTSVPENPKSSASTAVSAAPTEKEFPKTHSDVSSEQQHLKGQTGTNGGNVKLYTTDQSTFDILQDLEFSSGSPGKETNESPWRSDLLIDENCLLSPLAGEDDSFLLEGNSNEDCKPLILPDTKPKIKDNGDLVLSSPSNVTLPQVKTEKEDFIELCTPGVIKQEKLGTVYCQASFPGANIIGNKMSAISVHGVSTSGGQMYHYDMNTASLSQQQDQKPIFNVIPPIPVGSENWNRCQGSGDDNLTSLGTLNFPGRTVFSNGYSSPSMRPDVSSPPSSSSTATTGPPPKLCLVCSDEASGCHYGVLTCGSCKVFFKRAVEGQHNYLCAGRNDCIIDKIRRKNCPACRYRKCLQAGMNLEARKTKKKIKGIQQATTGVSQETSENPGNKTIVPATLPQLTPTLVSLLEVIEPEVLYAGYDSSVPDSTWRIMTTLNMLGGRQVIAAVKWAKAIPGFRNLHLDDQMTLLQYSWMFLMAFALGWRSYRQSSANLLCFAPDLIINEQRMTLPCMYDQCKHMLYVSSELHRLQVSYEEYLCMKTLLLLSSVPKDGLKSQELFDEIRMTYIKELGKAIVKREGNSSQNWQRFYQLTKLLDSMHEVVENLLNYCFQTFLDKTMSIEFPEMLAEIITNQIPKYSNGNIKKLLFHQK

Cytochrome P450 2A6 = target: T2, Cytochrome P450 2A6 (Homo sapiens, UniProt P11509); conditions: bti-tn-5b1-4; also: in other assays of this panel Not Active means under 50% inhibition at 10 µM
T2 sequence (P11509 whole entry): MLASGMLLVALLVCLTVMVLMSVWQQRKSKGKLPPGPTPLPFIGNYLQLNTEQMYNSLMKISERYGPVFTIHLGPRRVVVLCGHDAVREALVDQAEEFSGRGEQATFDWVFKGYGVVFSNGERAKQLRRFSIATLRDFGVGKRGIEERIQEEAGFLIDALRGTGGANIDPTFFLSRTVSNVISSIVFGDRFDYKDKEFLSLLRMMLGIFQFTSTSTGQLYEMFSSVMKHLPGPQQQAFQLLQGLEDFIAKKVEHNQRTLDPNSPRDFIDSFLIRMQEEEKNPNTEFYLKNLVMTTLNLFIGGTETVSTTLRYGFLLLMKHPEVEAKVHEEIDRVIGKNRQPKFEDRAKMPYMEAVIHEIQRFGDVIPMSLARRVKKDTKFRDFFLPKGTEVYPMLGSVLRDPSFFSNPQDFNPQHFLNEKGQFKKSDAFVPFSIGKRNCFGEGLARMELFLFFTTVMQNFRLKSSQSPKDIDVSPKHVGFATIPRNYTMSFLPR

[2] = target: T3, Receptor-type tyrosine-protein phosphatase C (Homo sapiens, UniProt P08575); parameters: species or system Escherichia coli
T3 sequence (P08575 whole entry): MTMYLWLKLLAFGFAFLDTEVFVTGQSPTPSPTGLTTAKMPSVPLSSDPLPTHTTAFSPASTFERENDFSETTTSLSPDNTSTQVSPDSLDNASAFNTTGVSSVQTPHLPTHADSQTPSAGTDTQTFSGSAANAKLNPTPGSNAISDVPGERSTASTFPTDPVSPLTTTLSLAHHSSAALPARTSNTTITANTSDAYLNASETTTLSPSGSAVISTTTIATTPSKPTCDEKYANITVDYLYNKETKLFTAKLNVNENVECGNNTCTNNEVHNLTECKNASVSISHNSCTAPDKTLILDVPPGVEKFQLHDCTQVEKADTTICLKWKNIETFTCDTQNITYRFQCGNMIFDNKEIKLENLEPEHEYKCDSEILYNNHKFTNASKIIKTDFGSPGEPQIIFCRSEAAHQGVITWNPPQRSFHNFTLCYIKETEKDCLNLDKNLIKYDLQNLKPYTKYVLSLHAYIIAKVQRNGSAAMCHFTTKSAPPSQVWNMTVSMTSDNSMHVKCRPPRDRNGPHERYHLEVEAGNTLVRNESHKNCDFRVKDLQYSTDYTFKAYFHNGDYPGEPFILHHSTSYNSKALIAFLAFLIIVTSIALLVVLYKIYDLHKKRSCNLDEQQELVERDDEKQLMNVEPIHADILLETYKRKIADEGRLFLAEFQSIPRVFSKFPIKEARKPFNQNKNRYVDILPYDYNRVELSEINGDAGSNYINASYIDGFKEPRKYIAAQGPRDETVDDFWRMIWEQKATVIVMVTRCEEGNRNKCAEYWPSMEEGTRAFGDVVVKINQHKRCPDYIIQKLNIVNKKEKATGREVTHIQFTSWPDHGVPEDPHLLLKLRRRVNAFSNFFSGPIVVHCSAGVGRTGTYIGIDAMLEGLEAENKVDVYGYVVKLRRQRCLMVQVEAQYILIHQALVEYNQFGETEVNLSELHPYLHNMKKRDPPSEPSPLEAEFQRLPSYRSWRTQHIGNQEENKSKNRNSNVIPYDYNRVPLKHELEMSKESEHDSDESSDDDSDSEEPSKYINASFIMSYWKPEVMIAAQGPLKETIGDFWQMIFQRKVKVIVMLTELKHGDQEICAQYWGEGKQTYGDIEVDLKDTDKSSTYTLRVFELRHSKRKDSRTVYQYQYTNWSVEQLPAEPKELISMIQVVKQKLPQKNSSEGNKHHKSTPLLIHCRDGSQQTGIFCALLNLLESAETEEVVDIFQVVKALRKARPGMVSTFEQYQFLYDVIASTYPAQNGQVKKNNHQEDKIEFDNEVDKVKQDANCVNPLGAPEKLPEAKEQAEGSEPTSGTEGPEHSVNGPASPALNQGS

[3] = DRUGMATRIX: beta-Lactamase enzyme inhibition (substrate: Nitrocefin); parameters: species or system Bacillus cereus; conditions: Not Active = under 50% inhibition at 10 µM
[4] = target: Vascular endothelial growth factor receptor 1 (Homo sapiens, UniProt P17948); test: biochemical; format: cell-based, HUVEC; conditions: huvec; also: in other assays of this panel Not Active means under 50% inhibition at 10 µM
Chain of Vascular endothelial growth factor receptor 1 (P17948 whole entry): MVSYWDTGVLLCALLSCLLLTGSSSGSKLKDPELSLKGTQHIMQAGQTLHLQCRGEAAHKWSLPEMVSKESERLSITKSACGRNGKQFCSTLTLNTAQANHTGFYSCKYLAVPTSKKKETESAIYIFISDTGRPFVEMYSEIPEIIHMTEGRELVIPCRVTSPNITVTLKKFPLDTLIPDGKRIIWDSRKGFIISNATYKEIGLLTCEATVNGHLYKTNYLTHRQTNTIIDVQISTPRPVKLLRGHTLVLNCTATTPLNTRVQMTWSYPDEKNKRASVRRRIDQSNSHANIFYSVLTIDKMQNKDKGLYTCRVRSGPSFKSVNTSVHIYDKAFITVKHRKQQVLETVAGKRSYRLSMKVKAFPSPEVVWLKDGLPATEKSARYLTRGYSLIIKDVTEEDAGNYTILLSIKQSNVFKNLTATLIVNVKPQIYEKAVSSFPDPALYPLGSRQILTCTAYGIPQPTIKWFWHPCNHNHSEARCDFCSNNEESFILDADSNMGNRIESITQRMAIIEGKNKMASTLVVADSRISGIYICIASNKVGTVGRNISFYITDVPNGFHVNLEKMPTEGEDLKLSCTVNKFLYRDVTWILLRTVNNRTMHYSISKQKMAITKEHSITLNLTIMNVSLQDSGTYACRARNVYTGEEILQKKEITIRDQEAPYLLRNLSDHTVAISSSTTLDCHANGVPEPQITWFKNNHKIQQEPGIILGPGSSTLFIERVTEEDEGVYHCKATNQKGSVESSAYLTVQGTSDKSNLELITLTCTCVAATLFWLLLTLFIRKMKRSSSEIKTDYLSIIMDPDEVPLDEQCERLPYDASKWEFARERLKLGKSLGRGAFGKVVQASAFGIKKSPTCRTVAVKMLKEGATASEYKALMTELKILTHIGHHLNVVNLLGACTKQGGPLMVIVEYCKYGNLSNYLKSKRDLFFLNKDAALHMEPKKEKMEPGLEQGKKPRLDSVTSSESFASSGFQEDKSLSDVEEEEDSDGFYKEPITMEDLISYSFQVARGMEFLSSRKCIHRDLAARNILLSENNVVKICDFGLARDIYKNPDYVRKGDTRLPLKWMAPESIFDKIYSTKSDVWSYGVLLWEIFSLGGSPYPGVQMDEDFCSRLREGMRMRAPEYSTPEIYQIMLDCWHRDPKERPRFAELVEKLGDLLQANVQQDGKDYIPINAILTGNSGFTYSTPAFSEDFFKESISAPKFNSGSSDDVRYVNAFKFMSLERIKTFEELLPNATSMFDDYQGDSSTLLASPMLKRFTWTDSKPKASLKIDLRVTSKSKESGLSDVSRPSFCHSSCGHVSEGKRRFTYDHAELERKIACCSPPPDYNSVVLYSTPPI

Chain of Melanocortin receptor 5 (P33032 whole entry): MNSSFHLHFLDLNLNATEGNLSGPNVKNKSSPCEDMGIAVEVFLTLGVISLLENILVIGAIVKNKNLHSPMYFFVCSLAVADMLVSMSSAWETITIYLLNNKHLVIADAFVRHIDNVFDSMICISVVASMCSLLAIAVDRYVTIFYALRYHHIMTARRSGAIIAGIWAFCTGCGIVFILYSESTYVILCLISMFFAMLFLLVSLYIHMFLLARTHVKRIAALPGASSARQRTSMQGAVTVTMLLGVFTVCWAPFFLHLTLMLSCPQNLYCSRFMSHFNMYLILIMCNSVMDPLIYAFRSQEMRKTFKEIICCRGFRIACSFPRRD
Chain of Substance-P receptor (P25103 whole entry): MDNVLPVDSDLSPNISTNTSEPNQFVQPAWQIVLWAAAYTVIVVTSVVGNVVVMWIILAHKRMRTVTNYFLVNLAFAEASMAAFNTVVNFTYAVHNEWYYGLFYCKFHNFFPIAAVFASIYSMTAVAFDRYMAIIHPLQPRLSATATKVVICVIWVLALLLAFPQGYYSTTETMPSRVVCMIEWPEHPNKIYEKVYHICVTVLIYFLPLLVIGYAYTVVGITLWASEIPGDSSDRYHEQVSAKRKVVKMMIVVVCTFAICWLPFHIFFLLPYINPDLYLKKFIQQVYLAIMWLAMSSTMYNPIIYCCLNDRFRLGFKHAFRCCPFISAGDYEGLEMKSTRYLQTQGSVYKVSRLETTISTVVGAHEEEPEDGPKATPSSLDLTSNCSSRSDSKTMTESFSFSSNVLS
Chain of Mitogen-activated protein kinase 3 (P27361 whole entry): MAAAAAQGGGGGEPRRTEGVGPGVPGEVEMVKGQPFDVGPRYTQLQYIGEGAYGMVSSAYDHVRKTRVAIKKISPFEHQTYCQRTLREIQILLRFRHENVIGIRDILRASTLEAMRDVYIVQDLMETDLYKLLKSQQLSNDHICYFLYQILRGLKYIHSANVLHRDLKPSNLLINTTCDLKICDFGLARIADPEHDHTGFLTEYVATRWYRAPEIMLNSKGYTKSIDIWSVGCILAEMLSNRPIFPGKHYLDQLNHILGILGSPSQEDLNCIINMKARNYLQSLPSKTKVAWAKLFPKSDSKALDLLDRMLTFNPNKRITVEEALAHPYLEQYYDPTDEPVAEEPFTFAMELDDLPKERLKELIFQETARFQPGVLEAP

CC(C)C[C@H]1C(=O)N2CCC[C@H]2[C@]2(O)O[C@](NC(=O)[C@@H]3C=C4c5cccc6[nH]c(Br)c(c56)C[C@H]4N(C)C3)(C(C)C)C(=O)N12 [BROMOCRIPTINE]
Not Active: IC50 (Melanocortin receptor 5) | IC50 [1] | IC50 (Substance-P receptor) | IC50 (Glucocorticoid receptor) | IC50 (Cytochrome P450 2A6) | Ki (Cytochrome P450 2A6) | IC50 [2] | IC50 [3] | Ki [3] | IC50 [4]

O=C(/C=C/c1ccc(O)c(O)c1)OCCc1ccccc1 [CAFFEIC ACID PHENETHYL ESTER]
Not Active: IC50 (Melanocortin receptor 5) | IC50 [1] | IC50 (Substance-P receptor) | IC50 (Glucocorticoid receptor) | IC50 (Cytochrome P450 2A6) | Ki (Cytochrome P450 2A6) | IC50 [2] | IC50 [3] | Ki [3] | IC50 [4]

COc1cc(CNC(=O)CCCC/C=C/C(C)C)ccc1O [CAPSAICIN]
Not Active: IC50 (Melanocortin receptor 5) | IC50 [1] | IC50 (Substance-P receptor) | IC50 (Glucocorticoid receptor) | IC50 (Cytochrome P450 2A6) | Ki (Cytochrome P450 2A6) | IC50 [2] | IC50 [3] | Ki [3] | IC50 [4]

CCOC(=O)n1ccn(C)c1=S [CARBIMAZOLE]
Not Active: IC50 (Melanocortin receptor 5) | IC50 [1] | IC50 (Substance-P receptor) | IC50 (Glucocorticoid receptor) | IC50 (Cytochrome P450 2A6) | Ki (Cytochrome P450 2A6) | IC50 [2] | IC50 [3] | Ki [3] | IC50 [4]

Oc1ccccc1O [CATECHOL]
Not Active: IC50 (Melanocortin receptor 5) | IC50 [1] | IC50 (Substance-P receptor) | IC50 (Glucocorticoid receptor) | IC50 (Cytochrome P450 2A6) | Ki (Cytochrome P450 2A6) | IC50 [2] | IC50 [3] | Ki [3] | IC50 [4]

CO[C@@]1(NC(=O)CSCC#N)C(=O)N2C(C(=O)O)=C(CSc3nnnn3C)CS[C@@H]21 [CEFMETAZOLE]
Not Active: IC50 (Melanocortin receptor 5) | IC50 [1] | IC50 (Substance-P receptor) | IC50 (Glucocorticoid receptor) | IC50 (Cytochrome P450 2A6) | Ki (Cytochrome P450 2A6) | IC50 [2] | IC50 [3] | Ki [3] | IC50 [4]

CN(C(=O)CCCOc1ccc2[nH]c(=O)ccc2c1)C1CCCCC1 [CILOSTAMIDE]
Not Active: IC50 (Melanocortin receptor 5) | IC50 [1] | IC50 (Substance-P receptor) | IC50 (Glucocorticoid receptor) | IC50 (Cytochrome P450 2A6) | Ki (Cytochrome P450 2A6) | IC50 [2] | IC50 [3] | Ki [3] | IC50 [4]

CC(C)(Oc1ccc(C2CC2(Cl)Cl)cc1)C(=O)O (stereo not given) [CIPROFIBRATE]
Not Active: IC50 (Melanocortin receptor 5) | IC50 [1] | IC50 (Substance-P receptor) | IC50 (Glucocorticoid receptor) | IC50 (Cytochrome P450 2A6) | Ki (Cytochrome P450 2A6) | IC50 [2] | IC50 [3] | Ki [3] | IC50 [4]

Nc1nc(Cl)nc2c1ncn2[C@H]1C[C@H](O)[C@@H](CO)O1 [CLADRIBINE]
Not Active: IC50 (Melanocortin receptor 5) | IC50 [1] | IC50 (Substance-P receptor) | IC50 (Glucocorticoid receptor) | IC50 (Cytochrome P450 2A6) | Ki (Cytochrome P450 2A6) | IC50 [2] | IC50 [3] | Ki [3] | IC50 [4]

CC[C@H]1OC(=O)[C@H](C)[C@@H](O[C@H]2C[C@@](C)(OC)[C@@H](O)[C@H](C)O2)[C@H](C)[C@@H](O[C@@H]2O[C@H](C)C[C@H](N(C)C)[C@H]2O)[C@](C)(OC)C[C@@H](C)C(=O)[C@H](C)[C@@H](O)[C@]1(C)O [CLARITHROMYCIN]
Not Active: IC50 (Melanocortin receptor 5) | IC50 [1] | IC50 (Substance-P receptor) | IC50 (Glucocorticoid receptor) | IC50 (Cytochrome P450 2A6) | Ki (Cytochrome P450 2A6) | IC50 [2] | IC50 [3] | Ki [3] | IC50 [4]

O=P1(N(CCCl)CCCl)NCCCO1 (stereo not given) [CYCLOPHOSPHAMIDE ANHYDROUS]
Not Active: IC50 (Melanocortin receptor 5) | IC50 [1] | IC50 (Substance-P receptor) | IC50 (Glucocorticoid receptor) | IC50 (Cytochrome P450 2A6) | Ki (Cytochrome P450 2A6) | IC50 [2] | IC50 [3] | Ki [3] | IC50 [4]

Nc1nc(N)nc(NC2CC2)n1 [CYROMAZINE]
Not Active: IC50 (Melanocortin receptor 5) | IC50 [1] | IC50 (Substance-P receptor) | IC50 (Glucocorticoid receptor) | IC50 (Cytochrome P450 2A6) | Ki (Cytochrome P450 2A6) | IC50 [2] | IC50 [3] | Ki [3] | IC50 [4]
